One data set deals with mongrel white mice. Nature of the data set: Acute toxicity in mice. The settings on record: ratio versus nifedipin and papaverine.
The nature of a further data set: Solubility. The format is physicochemical.
A further data set concerns Arterial Pressure. Briefly: Hypotensive activity in spontaneously-hypertensive rats. The class given is in vivo, spontaneously-hypertensive rats (SHR) of Okamoto-Aoki line. The note with it: SHR, single 10 mg/kg dose into the stomach; for Hypotensive activity: Table 2. As to the method: The experiments were conducted on spontaneously-hypertensive rats (SHR) of Okamoto-Aoki line.

Data set [1] concerns Coronary Blood Flow (descending branch of the left coronary artery). Nature of the data set: Coronary dilating activity: coronary blood flow in narcotized dogs with open thoracic cavity. The class given is in vivo. The settings on record: for ED (50% increase): Canis lupus familiaris, read-out: Dose increasing coronary blood flow by 50%. As to the method:
The experiments have been conducted on narcotized dogs with the open thoracic cavity. The blood flow was registered in the descending branch of the left coronary artery.
The blood flow was determined before and after the injection of the proposed compounds. The proposed compound was introduced in a single dose, intravenously, followed by calculating the increase in the coronary blood flow in percent.

A further data set is described as follows: in vivo. The note with it: mouse, ip.
The nature of a further data set: Chemical stability. The class given is physicochemical.
Data set [2] has as its system systemic arterial pressure and cardiac output. Nature of the data set: Systemic arterial pressure and cardiac output in narcotized dogs. The class given is in vivo. The note with it: 0.01-0.1 mg/kg, intravenous.
Another data set can be described thus: Acute toxicity in mice. The settings on record: mouse, in vivo, ip.
The conditions of data set [3]: large doses, in words; cited from earlier work.
The test system of data set [4] is coronary dilating activity. The settings on record: clinical practice, in words; cited from earlier work.
The mark [5] stands for this setting: 0.01 mg/kg, single dose, intravenous, narcotized dogs.
Setting [6] is: 0.1 mg/kg, single dose, intravenous, narcotized dogs.
The mark [7] stands for this setting: 0.5 mg/kg, single dose, intravenous, narcotized dogs.

Molecules are shown by their SMILES. Where two headings read alike, the source gives them in different places. Where only a bound is given, the exact number is not on record here.

The term LD50 denotes the dose at which mortality reaches 50%. Take `COC(=O)C1=C(C)NC(=O)NC1c1ccccc1SC(F)F` (stereo not shown) [Proposed compound, 2-oxo-4-(2'-difluoromethylthiophenyl)-5-methoxycarbonyl-6-methyl-1,2,3,4-tetrahydropyrimidine]: the “Toxicity, times lower than that of nifedipin and papaverine” value in the data set with mongrel white mice is 10-20 times. Also, in “Solubility” (ethyl alcohol, acetone, chloroform and other organic solvents), the “Solubility in organic solvents” value is “comparatively easily-soluble in ethyl alcohol, acetone, chloroform and other organic solvents”. Moreover, the Solubility in water entry in the data set “Solubility” (water) was “insoluble in water”. Further, in the data set with Arterial Pressure, the “Duration of hypotensive effect” value is recorded as 6 h, the “Effect on arterial pressure (in words)” value is “no substantial effect on arterial pressure”, the “Reduction of (systolic) arterial pressure” value came out at 8% and the Hypotensive activity is on record as 8. Moreover, in [1] (0.001 mg/kg, single dose, intravenous, narcotized dogs), the “Increase of coronary blood flow” value is reported as 19%. Moreover, in data set [1] (setting [5]), the Duration of effect is reported as 35 min and the “Increase of coronary blood flow” value amounted to 79%. In [1] (setting [6]), the Duration of effect was determined as 60 min and the “Increase of coronary blood flow” value is on record as 107%. Further, in data set [1] (single dose, intravenous, narcotized dogs), the ED (50% increase) came out at 0.006 mg/kg. Moreover, the “Duration of effect compared with nifedipin” value in data set [1] (ratio versus nifedipin) came out at 1.7 times. Moreover, in data set [1] (ratio versus nifedipin (summary)), the “Strong and prolonged vasodilating effect with relation to coronary vessels, compared with nifedipin” value was 1.7 times. Besides, in data set [1] (ratio versus papaverine), the “Coronary dilating activity compared with papaverine, by doses” value is listed as 150 times and the “Duration of effect compared with papaverine” value is listed as “over 10 times”. Further, the “Strong and prolonged vasodilating effect with relation to coronary vessels, compared with papaverine” value in data set [1] (ratio versus papaverine (summary)) is given as “about 10 times”. For the same compound, in [1] (versus nifedipin, in words), the “Coronary dilating effect compared with nifedipin” value was “approximately equal in activity to nifedipin”. Further, the LD50 at 336 h in the data set “in vivo” is above 2000 mg/kg. The Chemical stability entry in the data set “Chemical stability” was “chemically stable”. Also, the “Change of systemic arterial pressure and cardiac output” value in data set [2] was “did not change the systemic arterial pressure and the cardiac output”.

On to `COc1ccc(Cc2nccc3cc(OC)c(OC)cc23)cc1OC` [Papaverine, reference compound], for which the LD50 at 336 h in the data set “Acute toxicity in mice” amounted to 91 mg/kg. Further, the Toxicity entry in data set [3] was “rather high”. Also, in data set [4], the Coronary dilating activity result is “low coronary dilating activity”. For the same compound, in the data set on Arterial Pressure, the “Duration of hypotensive effect” value was 3 h, the “Effect on arterial pressure (in words)” value was “insignificant effect on arterial pressure”, the “Reduction of (systolic) arterial pressure” value came to 5% and the Hypotensive activity is given as 5. In [1] (setting [6]), the Duration of effect amounted to 5 min and the “Increase of coronary blood flow” value amounted to 20%. Further, in [1] (setting [7]), the Duration of effect was found to be 7 min and the “Increase of coronary blood flow” value was 30%. For the same compound, in data set [1] (iv), the ED (50% increase) was determined as 0.9 mg/kg.
